The subject of experiment [1] is NHE3 in PN cells. Put plainly: NHE3 expression. The class given is cell-based, mouse. Particulars: treated PN cells vs PN cells. The method, then: FIG. 14A and FIG. 14B show NHE3 expression in PN cells treated with VX-809.
The expression and activity of […] were evaluated. Specifically, NHE3 expression was evaluated in PN cells that were treated with VX-809. […] was also studied in PN, PH, and PN cells treated with VX-809. […] Next, NHE3 activity was evaluated in PN/PH cells or PN cells treated with VX-809. NHE3 activity was increased in PN cells treated with VX-809, as compared to PN cells (FIG. 16A). NHE3 activity was higher in control PH cells than in PN cells (FIG. 16B). […] NHE3 activity was increased in both VX-809 treated PN cells and control PH cells, as compared to control PN cells (FIG. 16C).

For experiment [2], the system named is intracellular Ca^2+ in PN cells. Put plainly: Fura-2 Ca2+ imaging assay. Format: cell-based, mouse. Particulars: 10 μM, 16 h. The method, then:
FIG. 5A, FIG. 5B, FIG. 5C, FIG. 5D, FIG. 5E, and FIG. 5F show intracellular Ca^2+ (F340/F380) levels obtained by ratiometric Fura-2 AM analysis of PN cells treated with VX-809 (10 μM) for 16 h. (FIG. 5A) Representative traces of intracellular Ca^2+ release in response to ATP (100 μM) in PN cells and cells treated with VX-809 (10 μM). (FIG. 5B, FIG. 5C) Graphs summarizing resting calcium levels (FIG. 5B) and the average amplitude of Ca^2+ release (FIG. 5C) in response to ATP. (FIG. 5D) Representative traces of ER Ca^2+ release in response to thapsigargin (4 μM) in PN cells treated with VX-809. (FIG. 5E, FIG. 5F) Resting calcium levels (FIG. 5E) and the average amplitude of Ca^2+ release (FIG. 5F) in response to thapsigargin. Amplitude was measured as the […] of the signal base to peak Δf/f. Significance between the two groups was analyzed using Student's t-test, n=4-5). *P<0.05, ***P<0.001.
Ca^2+-dependent signal transduction is associated with cyst formation. […] To address the effect of VX-809 on this Ca^2+ release, the cells were treated with thapsigargin, a specific inhibitor of the ER Ca^2+-ATPase which, when applied, allows Ca^2+ to leak out of the ER through independent Ca^2+-permeable pathways. A small effect of VX-809 on resting Ca^2+ was observed.
Fura-2 Ca^2+ imaging assay. On Day 5 of cell culture, the cells were loaded with the cell-permeant acetoxymethyl (AM) ester of the calcium indicator fura-2 (fura-2/AM) at 37° C. for 90 min. Measurements were made on a Zeiss inverted microscope equipped with a Sutter Lambda 10-2 controller and filter wheel assembly. For ATP stimulation experiments, the cells were exposed to 100 μM ATP diluted in the imaging buffer. A Zeiss FluorArc mercury lamp was used to excite the cells at 340 and 380 nm, and the emission response was measured at 510 nm Cell fluorescence was measured in response to excitation for 1000 ms at 340 nm and 200 ms at 380 nm once every 4 s. Image acquisition, image analysis, and filter wheel control were performed with IPLab software.

Experiment [3] has as its system kidneys of Pkd1^fl/fl; Pax8^rtTA; TetO-cre mice. Briefly: Ki67 staining of kidney sections (proliferation). Format: in vivo, mouse. Particulars: 30 mg/kg, vs DMSO-treated mice. The source says:
FIG. 3A, FIG. 3B, FIG. 3C, and FIG. 3D show cell proliferation is reduced by VX-809. (FIG. 3A-FIG. 3B) Proliferation in kidneys of Pkd1^fl/fl; Pax8^rtTA; TetO-cre mice. Representative images of Ki67 (a cellular marker for proliferation) staining of PN21 kidney sections from DMSO- and VX-809-treated mice. Arrows indicate Ki67-positive cells. Pictures were acquired with a Zeiss microscope equipped with 20× objective. (FIG. 3C) Summary data for Ki67-positive cells. Columns represent averages±standard errors of DMSO (vehicle)-treated (n=3) and VX-809-treated (n=3) mice. Statistical analysis was performed using a two-tailed Student's t test. (FIG. 3D) Proliferation in PN cells. PN cells were treated with VX-809 or DMSO). The bromodeoxyuridine (BrdU) concentration in the cells was measured by using a BrdU cell proliferation assay kit (Millipore Sigma#2750) according to the manufacturer's protocol. Columns represent averages±SEs of the OD of BrdU at 450/550 […]. Data were analyzed using Student's t-test, with n=5-7. Methods were described previously (62). *P>0.05; **P<0.01;
A hallmark of the cysts in ADPKD is an increase in proliferation in response to cAMP. Therefore, it was determined whether VX-809 would affect proliferation.

The subject of experiment [4] is PC2 in the primary cilium. Put plainly: Confocal microscopy of PC2 in cilia of kidney sections. Format: in vivo, mouse. Particulars: doxycycline plus VX-809 vs doxycycline plus DMSO. The method, then:
To determine the location of PC2 in the cilia, confocal microscopy experiments using the Pkd1^fl/fl; Pax8^rtTA TetO-cre mouse model were conducted. These mice, when injected intraperitoneally (IP) with doxycycline on postnatal days (PND) 11, 12, and 13, developed multiple large cysts and large polycystic kidneys at approximately 3 weeks of age.
Mice were treated without doxycycline (NoDoxy), with doxycycline plus DMSO (Doxy), or with doxycycline plus VX809 (Doxy VX809), as indicated. PC2 staining is shown in red, acetylated (ac) αtubulin is shown in green, regions of colocalization of PC2 and ac-atubulin are shown in yellow. Scale bar is 10 μm. All pictures were taken with a 63× objective.
FIG. 21 is a graph of the percentage of cells with ciliary staining. Mice were treated without doxycycline (NoDoxy), with doxycycline plus DMSO (Doxy), or with doxycycline plus VX809 (Doxy VX809), as indicated, and kidney cells were analyzed. Pearson's coefficient was measured using at least 10 cells per image. Three animals were analyzed for each maneuver.
In normal mice PC2 is located in the primary cilium.

Take `Cc1ccc(NC(=O)C2(c3ccc4c(c3)OC(F)(F)O4)CC2)nc1-c1cccc(C(=O)O)c1` [VX-809, lumacaftor]: the NHE3 expression entry in experiment [1] was “significantly increased”. Also, in experiment [2] (ATP 100 μM), the “intracellular Ca^2+ movement in response to ATP” value is reported as “no effect”. The entries for the “resting Ca^2+” value in experiment [2] (ATP experiment) and in experiment [2] (thapsigargin experiment) were “small reduction” and “small effect”, respectively. For the same compound, the “thapsigargin-induced release of Ca^2+ from the ER” value in experiment [2] (thapsigargin 4 μM) is on record as “dramatically reduced”. In experiment [3], the “cell proliferation (Ki67-positive cells)” value is “significantly inhibit cell proliferation”. Moreover, the “PC2 in the cilium” value in experiment [4] is “restores PC2 to the cilium”. The “colocalization of PC2 with the cilia marker ac-αtubulin” value in experiment [4] was “increases colocalization”.

These data come from patent US20220133702A1, “CYSTIC FIBROSIS TRANSMEMBRANE CONDUCTANCE REGULATOR MODULATORS FOR TREATING AUTOSOMAL DOMINANT POLYCYSTIC KIDNEY DISEASE” (The Johns Hopkins University, priority 2020, published 2022).
